Measured values from EP4640686A1, “DEGRADER FOR DEGRADING BRD PROTEIN AND PHARMACEUTICAL COMPOSITION CONTAINING SAME” (Innocure Therapeutics, Inc., priority 2022, dated 2024).
Where two headings read alike, the source gives them in different places.

Key:
Assay type in all cases: cell-based
BRD4-NUT = target: T1, BRD4-NUT (Homo sapiens, UniProt O60885+Q86Y26); test: BRD4-NUT protein degradation by western blotting in RPMI2650 cells (24 h treatment)
T1 construct: endogenous in cells; host or cells: RPMI2650
Experimental: (§1) The synthesized compounds were prepared with a 10 mM or 50 mM raw material solution dissolved in DMSO [dimethyl sulfoxide], and were diluted sequentially and treated. [RPMI2650] and [SNU2972] were cultivated under specific conditions.
(§2) To evaluate the resolution of PROTAC for BRD4 expressed in cells, cells were dispensed in a concentration of 5 X 10^5 cells/well in a 6-well plate, and the sample was treated for 24 hours. […] Protein expression was normalized based on the expression value of β or GAPDH, and protein expression in each sample was measured as % based on 100% of samples treated with 0.1% DMSO vehicle. Protein expression was quantified using Image J program. Change in protein expression volume by compound treatment (DC50: concentration of compounds where 50% protein expression inhibition is achieved) was calculated using the GraphicPad Prism 8.0 software.

RPMI2650 = test: Cancer cell antiproliferative activity / cell viability in RPMI2650 cells (72 h treatment); conditions: Homo sapiens
Experimental: The human breast cancer cell line [MDA-MB-231] was cultured in RPMI medium with the addition of 10% fetal bovine serum, penicillin [100U/ml], and streptomycin [[…]]. The synthesized compounds were prepared with a 10 mM or 50 mM raw material solution dissolved in DMSO [dimethyl sulfoxide], and were diluted sequentially and treated. [RPMI2650] and [SNU2972] were cultivated under specific conditions.
To observe cell growth inhibition, cells were dispensed in a concentration of 5,000 cells/well in a 96-well plate, and samples prepared at various concentrations were treated for 72 hours. The IC50 value (the concentration of the compound achieving 50% cytostaticism) is the average value of the results of three independent measurements.

BRD4 = BRD4 (Homo sapiens, UniProt O60885); test: BRD4 protein degradation by western blotting in RPMI2650 cells (24 h treatment); parameters: To evaluate the resolution of PROTAC for BRD4 expressed in cells; endogenous in cells; host or cells: RPMI2650
Experimental: as §1, §2

[1] = RPM12650, read-out: BRD4-NUT (DC50)
[2] = RPMI-2650, RPM12650, read-out: Cell Viatility (IC50)
[3] = RPM12650, read-out: BRD4 (DC50)
[4] = RPMI-2650, 72 h, RPM12650, read-out: Cell Viatility (IC50)

For CC[C@@H]1c2nnc(C)n2-c2cnc(Nc3ccc(C(=O)N4CCN(CCNc5ccc6c(=O)n(C7CCC(=O)NC7=O)nc(C)c6c5)CC4)cc3OC)nc2N1CC1CCCCC1 (stereo partly drawn) [ICT-0001599, 3-(6-((2-(4-(4-(((R)-5-(cyclohexylmethyl)-4-ethyl-1-methyl-4,5-dihydro-[1,2,4]triazolo[4,3-f]pteridine-7-yl)amino)3-methoxybenzoyl)piperazine-1-yl)ethyl)amino)4-methyl-1-oxopthalazine-2(1H)-yl)piperidine-2,6-dione], the DC50 (BRD4-NUT; [1]) was less than 100 nM, the IC50 (RPMI2650; [2]) was greater than 1000 nM and the DC50 (BRD4; [3]) was less than 100 nM.

In the case of CC[C@@H]1c2nnc(C)n2-c2cnc(Nc3ccc(C(=O)N4CCN(CC5CCN(c6ccc(NC7CCC(=O)NC7=O)cc6F)CC5)CC4)cc3OC)nc2N1CC1CCCCC1 (stereo partly drawn) [ICT-0001518, 3-((4-(4-((4-(4-(((R)-5-(cyclohexylmethyl)-4-ethyl-1-methyl-4,5-dihydro-[1,2,4]triazolo[4,3-f]pteridine-7-yl)amino)3-methoxybenzoyl)piperazine-1-il)methyl)piperidine-1-yl)-3-fluorophenyl)amino)piperidine-2,6-dione], the DC50 (BRD4-NUT; [1]) is reported as less than 100 nM, the IC50 (RPMI2650; [2]) is reported as 100 to 1000 nM and the DC50 (BRD4; [3]) is reported as less than 100 nM.

With CC[C@@H]1c2nnc(C)n2-c2cnc(Nc3ccc(C(=O)NC4CCN(C(=O)CN5CCN(c6ccc7c(=O)n(C8CCC(=O)NC8=O)nc(C)c7c6)CC5)CC4)cc3OC)nc2N1CC1CCCCC1 (stereo partly drawn) [ICT-0001563] the DC50 (BRD4-NUT; [1]) was less than 100 nM, the IC50 (RPMI2650; [2]) was greater than 1000 nM and the DC50 (BRD4; [3]) was less than 100 nM.

CC[C@@H]1c2nnc(C)n2-c2cnc(Nc3ccc(C(=O)NC4CCN(CCCN5CCN(c6ccc7c(=O)n(C8CCC(=O)NC8=O)nc(C)c7c6)CC5)CC4)cc3OC)nc2N1CC1CCCCC1 (stereo partly drawn) [ICT-0001568, 4-{[(4R)-5-(cyclohexylmethyl)-4-ethyl-1-methyl-4H,5H-[1,2,4]triazolo[4,3-f]phteridine-7-yl]amino}-N-[1-(3-{4-[2-(2,6-dioxopiperidin-3-yl)-4-methyl-1-oxo-1,2-dihydroptalazine-6-yl}piperazine-1-il}piperidine-4-yl]piperidine-4-yl]-3-methoxybenzamide] was tested, and the DC50 (BRD4-NUT; [1]) was greater than 1000 nM, the IC50 (RPMI2650; [2]) was greater than 1000 nM and the DC50 (BRD4; [3]) was less than 100 nM.

CC[C@@H]1c2nnc(C)n2-c2cnc(Nc3ccc(C(=O)N4CCN(CCNc5cccc6cnn(C7CCC(=O)NC7=O)c(=O)c56)CC4)cc3OC)nc2N1CC1CCCCC1 (stereo partly drawn) [ICT-0001601, 3-(8-((2-(4-(4-(((R)-5-(cyclohexylmethyl)-4-ethyl-1-methyl-4,5-dihydro-[1,2,4]triazolo[4,3-f]pteridine-7-yl)amino)3-methoxybenzoyl)piperazine-1-il)ethyl)amino)1-oxopthalazine-2(1H)-yl)piperidine-2,6-dione] was tested, and the DC50 (BRD4-NUT; [1]) was less than 100 nM, the IC50 (RPMI2650; [2]) was less than 100 nM and the DC50 (BRD4; [3]) was less than 100 nM.

In the case of CC[C@@H]1c2nnc(C)n2-c2cnc(Nc3ccc(C(=O)N4CCN(c5ccc6c(=O)n(C7CCC(=O)NC7=O)nc(C)c6c5)CC4)cc3OC)nc2N1CC1CCCCC1 (stereo partly drawn) [ICT-0001576, 3-{6-[4-(4-{[(4R)-5-(cyclohexylmethyl)-4-ethyl-1-methyl-4H,5H-[1,2,4]triazolo[4,3-f]pteridine-7-yl]amino}-3-methoxybenzoyl)piperazine-1-yl]-4-methyl-1-oxo-1,2-dihydroptalazine-2-yl}piperidine-2,6-dione], the DC50 (BRD4-NUT; [1]) is reported as less than 100 nM, the IC50 (RPMI2650; [2]) is reported as greater than 1000 nM and the DC50 (BRD4; [3]) is reported as less than 100 nM.

Work on CC[C@@H]1c2nnc(C)n2-c2cnc(Nc3ccc(C(=O)NCCNc4cccc5cnn(C6CCC(=O)NC6=O)c(=O)c45)cc3OC)nc2N1CC1CCCCC1 (stereo partly drawn) [ICT-0001558, 4-(((R)-5-(cyclohexylmethyl)-4-ethyl-1-methyl-4,5-dihydro-[1,2,4]triazolo[4,3-f]pteridine-7-yl)amino)N-(2-((3-(2,6-dioxopiperidin-3-yl)4-oxo-3,4-dihydroptalazine-5-yl)amino)ethyl)-3-methoxybenzamide] yielded a DC50 (BRD4-NUT; [1]) of less than 100 nM, an IC50 (RPMI2650; [2]) greater than 1000 nM and a DC50 (BRD4; [3]) of less than 100 nM.

Compound CC[C@@H]1c2nnc(C)n2-c2cnc(Nc3ccc(C(=O)NC4CCN(C(=O)C5CCN(c6ccc7c(C)nn(C8CCC(=O)NC8=O)c(=O)c7c6)CC5)CC4)cc3OC)nc2N1CC1CCCCC1 (stereo partly drawn) [ICT-0001592] has a DC50 (BRD4-NUT; [1]) of less than 100 nM, an IC50 (RPMI2650; [2]) of less than 100 nM and a DC50 (BRD4; [3]) of less than 100 nM.

CC[C@@H]1c2nnc(C)n2-c2cnc(Nc3ccc(C(=O)N4CCN(CCNc5ccc6c(C)nn(C7CCC(=O)NC7=O)c(=O)c6c5)CC4)cc3OC)nc2N1CC1CCCCC1 (stereo partly drawn) [ICT-0001600, 3-(7-((2-(4-(4-(((R)-5-(cyclohexylmethyl)-4-ethyl-1-methyl-4,5-dihydro-[1,2,4]triazolo[4,3-f]pteridine-7-yl)amino)3-methoxybenzoyl)piperazine-1-yl)ethyl)amino)4-methyl-1-oxopthalazine-2(1H)-yl)piperidine-2,6-dione] gave a DC50 (BRD4-NUT; [1]) of less than 100 nM, an IC50 (RPMI2650; [2]) of less than 100 nM and a DC50 (BRD4; [3]) of less than 100 nM.

CC[C@@H]1c2nnc(C)n2-c2cnc(Nc3ccc(C(=O)NCCCC#Cc4ccc5c(=O)n(C6CCC(=O)NC6=O)ncc5c4)cc3OC)nc2N1CC1CCCCC1 (stereo partly drawn) [ICT-0001515, 4-(((R)-5-(cyclohexylmethyl)-4-ethyl-1-methyl-4,5-dihydro-[1,2,4]triazolo[4,3-f]pteridine-7-yl)amino)-N-(5-(2-(2,6-dioxopiperidin-3-yl)-1-oxo-1,2-dihydroptalazine-6-yl)pent-4-phosphorus-1-yl)-3-methoxybenzamide] was tested, and the DC50 (BRD4-NUT; [1]) was greater than 1000 nM, the IC50 (RPMI2650; [2]) was greater than 1000 nM and the DC50 (BRD4; [3]) was greater than 1000 nM.

Work on CC[C@@H]1c2nnc(C)n2-c2cnc(Nc3ccc(C(=O)NC4CCN(c5ccc(NC6CCC(=O)NC6=O)cc5F)CC4)cc3OC)nc2N1CC1CCCCC1 (stereo partly drawn) [ICT-0001566, 4-{[(4R)-5-(cyclohexylmethyl)-4-ethyl-1-methyl-4H,5H-[1,2,4]triazolo[4,3-f]pteridine-7-yl]amino}-N-(1-{4-[(2,6-dioxopiperidine-3-yl)amino]-2-fluorophenyl}piperidine-4-yl)-3-methoxybenzamide] yielded a DC50 (BRD4-NUT; [1]) of less than 100 nM, an IC50 (RPMI2650; [4]) greater than 1000 nM and a DC50 (BRD4; [3]) of less than 100 nM.

For Cc1sc2c(c1C)C(c1ccc(Cl)cc1)=N[C@@H](CC(=O)Nc1ccc(CN3CCN(c4ccc(NC5CCC(=O)NC5=O)cc4F)CC3)cc1)c1nnc(C)n1-2 (stereo partly drawn) [ICT-0001441, 2-[(9S)-7-(4-chlorophenyl)-4,5,13-trimethyl-3-thia-1,8,11,12-tetraazatricyclo[8.3.0.0^2,^6]trideca-2(6),4,7,10,12-pentaene-9-yl]-N-{4-[(4-{4-[(2,6-dioxopiperidine-3-yl)amino]-2-fluorophenyl}piperazine-1-yl)methyl]phenyl}acetamide], the DC50 (BRD4-NUT; RPMI2650, read-out: BRD4-NUT (DC50)) was less than 100 nM, the IC50 (RPMI2650; RPMI-2650, RPMI2650, read-out: BRD4 (IC50)) was less than 100 nM and the DC50 (BRD4; read-out: BR04 (DC50), RPMI2650) was less than 100 nM.

Work on CC[C@@H]1c2nnc(C)n2-c2cnc(Nc3ccc(C(=O)N4CCN(CCNc5ccc6c(=O)n(C7CCC(=O)NC7=O)ncc6c5)CC4)cc3OC)nc2N1CC1CCCCC1 (stereo partly drawn) [ICT-0001603, 3-(6-((2-(4-(4-(((R)-5-(cyclohexylmethyl)-4-ethyl-1-methyl-4,5-dihydro-[1,2,4]triazolo[4,3-f]pteridine-7-yl)amino)3-methoxybenzoyl)piperazine-1-yl)ethyl)amino)1-oxopthalazine-2(1H)-yl)piperidine-2,6-dione] yielded a DC50 (BRD4-NUT; [1]) of less than 100 nM, an IC50 (RPMI2650; [2]) greater than 1000 nM and a DC50 (BRD4; [3]) of less than 100 nM.

With CC[C@@H]1c2nnc(C)n2-c2cnc(Nc3ccc(C(=O)N4CCN(CC5CCN(c6ccc7c(=O)n(C8CCC(=O)NC8=O)nc(C)c7c6)CC5)CC4)cc3OC)nc2N1CC1CCCCC1 (stereo partly drawn) [ICT-0001516, 3-(6-(4-((4-(4-(((R)-5-(cyclohexylmethyl)-4-ethyl-1-methyl-4,5-dihydro-[1,2,4]triazolo[4,3-f]pteridine-7-yl)amino)3-methoxybenzoyl)piperazine-1-il)methyl)piperidine-1-yl)4-methyl-1-oxopthalazine-2(1H)-yl)piperidine-2,6-dione] the DC50 (BRD4-NUT; [1]) was less than 100 nM, the IC50 (RPMI2650; [2]) was greater than 1000 nM and the DC50 (BRD4; [3]) was less than 100 nM.

Work on CC[C@@H]1c2nnc(C)n2-c2cnc(Nc3ccc(C(=O)NC4CCN(CCCN5CCN(c6ccc(NC7CCC(=O)NC7=O)cc6F)CC5)CC4)cc3OC)nc2N1CC1CCCCC1 (stereo partly drawn) [ICT-0001572, 4-{[(4R)-5-(cyclohexylmethyl)-4-ethyl-1-methyl-4H,5H-[1,2,4]triazolo[4,3-f]pteridine-7-yl]amino}-N-{1-[3-(4-{4-[(2,6-dioxopiperidin-3-yl)amino]-2-fluorophenyl}piperazine-1-yl)propyl]piperidine-4-yl}-3-methoxybenzamide] yielded a DC50 (BRD4-NUT; [1]) greater than 1000 nM, an IC50 (RPMI2650; [4]) greater than 1000 nM and a DC50 (BRD4; [3]) greater than 1000 nM.
